In series [1] the target is T1, Bombesin receptor subtype-3 (Homo sapiens, UniProt P32247).
T1 sequence (P32247 whole entry): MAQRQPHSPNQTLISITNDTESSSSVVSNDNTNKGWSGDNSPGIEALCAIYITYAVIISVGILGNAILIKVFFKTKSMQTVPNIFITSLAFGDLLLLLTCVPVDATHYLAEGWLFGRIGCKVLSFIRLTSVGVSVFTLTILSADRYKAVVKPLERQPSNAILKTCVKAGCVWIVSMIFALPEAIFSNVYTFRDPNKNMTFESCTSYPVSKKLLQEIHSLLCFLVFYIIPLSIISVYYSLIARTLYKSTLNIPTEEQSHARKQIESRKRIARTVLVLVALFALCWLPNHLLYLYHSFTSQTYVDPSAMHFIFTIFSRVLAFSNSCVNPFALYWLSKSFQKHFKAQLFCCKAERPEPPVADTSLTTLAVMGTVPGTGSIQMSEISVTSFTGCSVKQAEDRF
The series is described as follows: Displacement of [125I]-[D-Tyr6,beta-Ala11,Phe13,Nle14]-Bombesin(6-14) from human BRS3 expressed in CHO cells expressing NFAT after 2 hrs by liquid scintillation counting. It counts as cell-based.

Series [2] concerns the target T2, Bombesin receptor subtype-3 (Mus musculus, UniProt O54798).
T2 sequence (O54798 whole entry): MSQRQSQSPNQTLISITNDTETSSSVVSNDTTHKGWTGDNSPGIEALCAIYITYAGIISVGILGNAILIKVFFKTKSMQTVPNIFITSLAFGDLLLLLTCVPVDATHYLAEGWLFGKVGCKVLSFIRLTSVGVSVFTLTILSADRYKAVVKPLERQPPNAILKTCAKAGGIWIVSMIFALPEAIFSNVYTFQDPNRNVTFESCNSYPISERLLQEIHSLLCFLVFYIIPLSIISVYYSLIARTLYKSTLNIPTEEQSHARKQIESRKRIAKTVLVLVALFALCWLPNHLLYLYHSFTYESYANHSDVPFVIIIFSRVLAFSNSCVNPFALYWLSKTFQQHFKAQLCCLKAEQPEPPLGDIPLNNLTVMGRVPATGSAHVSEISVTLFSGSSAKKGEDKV
The series is described as follows: Agonist activity at mouse BRS3 expressed in HEK293 cells expressing aequorin measured for 30 secs by bioluminescence assay. It counts as functional, cell-based.

Series [3] has as its target T3, Bombesin receptor subtype-3 (Mus musculus) (UniProt O54798).
T3 sequence (whole entry): T2 sequence (O54798 whole entry)
Nature of the series: Agonist activity at mouse BRS3 expressed in HEK293 cells expressing aequorin measured for 30 secs by bioluminescence assay relative to [125I]-[D-Tyr6,beta-Ala11,Phe13,Nle14]-Bombesin(6-14). It counts as functional, cell-based.

The target of series [4] is T1, Bombesin receptor subtype-3. The series is described as follows: Agonist activity at human BRS3 expressed in HEK293 cells expressing aequorin measured for 30 secs by bioluminescence assay. It counts as functional, cell-based.
A further series relates to Rattus norvegicus. Nature of the series: Dose normalized AUC in Sprague-Dawley rat at 4 mg/kg, po. The arrangement: dose 4 mg/kg, route oral. As to conditions: in vivo. It counts as ADME, organism-based.
Series [5] in a line: Oral bioavailability in Sprague-Dawley rat at 4 mg/kg. As to conditions: in vivo. It counts as ADME, organism-based.
Series [6] is described as follows: Plasma clearance in Sprague-Dawley rat at 1 mg/kg, iv. It counts as ADME, organism-based. More on the design: dose 1 mg/kg, route intravenous.
Series [7] is described as follows: Half life in Sprague-Dawley rat at 1 mg/kg, iv. It counts as ADME, organism-based. More on the design: dose 1 mg/kg, route intravenous. As to conditions: in vivo.
A further series deals with Mus musculus. The series is described as follows: Antiobesity activity in diet-induced obese wild type C57 mouse assessed as weight loss at 3 mg/kg, po administered QD 60 mins prior to dark cycle onset relative to control. It counts as functional.

What is called IC50 is the concentration needed to halve the response being measured. The low end stands for greater potency, the high end for weaker potency. By EC50 is commonly meant the concentration giving half of the maximal effect. A low value points to greater potency. Regarding `Cc1ccc2c(c1C)N(S(=O)(=O)c1ccc(C(C)(C)C)cc1)Cc1ccc(C#N)nc1N2`, the IC50 in series [1] came to 0.0044 µM. The EC50 in series [2] and in series [4] was 0.05 µM in each case. The molecule also gave a max activation in series [3] of 103%.

As for `Cc1ccc2c(c1C)Nc1nc(C(F)(F)F)ccc1CN2S(=O)(=O)c1ccc(C(C)(C)C)cc1`, the concentration for a half-maximal effect (EC50) in series [2] and in series [4] was over 10 µM each time.

As to `Cc1ccc2c(c1C)N(S(=O)(=O)c1ccc(C(F)(F)F)s1)Cc1ccc(C(F)(F)F)nc1N2`, in series [1], the IC50 was 0.01 µM. Moreover, the EC50 was 0.154 µM in series [2] and 0.158 µM in [4]. The max activation in series [3] came out at 90%.

The molecule `CC(C)(C)c1ccc(S(=O)(=O)N2Cc3ccc(C(F)(F)F)nc3Nc3ccc4ncccc4c32)cc1` registered an IC50 in series [1] of 0.0007 µM. Further, the EC50 in series [2] worked out at 0.129 µM; in series [4], 0.108 µM. Also, in series [3], the max activation was found to be 107%.

On to `Cc1ccc2c(c1C)N(S(=O)(=O)c1csc(C(F)(F)F)c1)Cc1ccc(C(F)(F)F)nc1N2`, for which the IC50 in [1] was 0.014 µM. The EC50 in [2] is 0.096 µM; in series [4], 0.123 µM. Also, the max activation in [3] is 103%.

`CC(C)(C)c1ccc(S(=O)(=O)N2Cc3ccc(C(F)(F)F)nc3Nc3cccc(O)c32)cc1` gave an IC50 in series [1] of 0.0022 µM. Also, the EC50 in series [2] stood at 0.209 µM; in series [4], 0.088 µM. The max activation in series [3] was found to be 115%.

`Cc1ccc2c(c1C)N(S(=O)(=O)c1ccc(S(C)(=O)=O)cc1)Cc1ccc(C(F)(F)F)nc1N2` had a 50% inhibitory concentration (IC50) in series [1] of 0.073 µM. The figures for the 50% effective concentration (EC50) in series [2] and in series [4] were 0.561 µM and 0.543 µM, respectively. In addition, the max activation in series [3] turned out to be 46%.

`Cc1ccc2c(c1C)N(S(=O)(=O)c1ccc(C(C)(C)C)cc1)Cc1cc(F)c(Cl)nc1N2` came in with a concentration for half-maximal inhibition (IC50) in series [1] of 0.0089 µM. The EC50 in series [2] was determined as 0.371 µM; in series [4], 0.277 µM. In addition, the max activation in series [3] worked out at 82%.

In general, bioavailability refers to the share of a dose that reaches the circulation, judged against a reference dose that is usually intravenous. Low values mean poor availability, high ones good availability. A word on the clearance: it is the rate of elimination divided by the concentration. High values mean a high capacity for elimination, low ones a low capacity for elimination. As a reminder, the half-life is the time in which the quantity being followed falls by half. In turn, `Cc1ccc2c(c1)N(S(=O)(=O)c1ccc(C(C)(C)C)cc1)Cc1ccc(C(F)(F)F)nc1N2` yielded an AUC/dose with Rattus norvegicus of 0.31 µM·kg·h/mg. The concentration for half-maximal inhibition (IC50) in series [1] was determined as 0.0058 µM. Moreover, the concentration giving a half-maximal response (EC50) in [2] is 0.377 µM; in series [4], 0.199 µM. In addition, in [3], the max activation was found to be 82%. In series [5], this molecule came in with a bioavailability of 22%. For the same molecule, the clearance in [6] was 1.44 L/h/kg. In series [7], this molecule had a half-life of 2.2 h.

`Cc1ccc2c(c1C)N(S(=O)(=O)c1ccc(OC(F)(F)F)cc1)Cc1ccc(C(F)(F)F)nc1N2` gave an IC50 in series [1] of 0.0033 µM. The EC50 worked out at 0.08 µM in series [2] and 0.043 µM in series [4]. The molecule further came in with a max activation in series [3] of 103%.

For `Cc1ccc2c(c1C)N(S(=O)(=O)c1ccc(C(C)(C)C)cc1)Cc1cc(Cl)cnc1N2`, in [1], the IC50 came to 0.43 µM. The concentration for a half-maximal effect (EC50) in [2] and in [4] was over 10 µM each time.

As to `CC(C)(C)c1ccc(S(=O)(=O)N2Cc3ccc(C(F)(F)F)nc3Nc3ccccc32)cc1`, in series [1], the half-maximal inhibitory concentration (IC50) is 0.0055 µM. For the same molecule, the results for the EC50 in series [2] and in series [4] were 0.161 µM and 0.11 µM, respectively. Further, the max activation in series [3] was 98%.

Molecule `Cc1cccc2c1N(S(=O)(=O)c1ccc(C(C)(C)C)cc1)Cc1ccc(C(F)(F)F)nc1N2` registered an AUC/dose with Rattus norvegicus of 0.13 µM·kg·h/mg. In [1], this molecule came in with a half-maximal inhibitory concentration (IC50) of 0.0009 µM. The EC50 in series [2] turned out to be 0.12 µM; in series [4], 0.05 µM. This molecule had a max activation in series [3] of 106%. The molecule also yielded a bioavailability in series [5] of 14%. This molecule also came in with a clearance in series [6] of 2.28 L/h/kg. In series [7], the half-life is 1.6 h.

Turning to `CC(C)(C)c1ccc(S(=O)(=O)N2Cc3ccc(C(F)(F)F)nc3Nc3cccc(Cl)c32)cc1`, the AUC/dose in the series with Rattus norvegicus was determined as 0.26 µM·kg·h/mg. The molecule further came in with an IC50 in [1] of 0.0032 µM. Besides, the EC50 was found to be 0.155 µM in series [2] and 0.063 µM in series [4]. This molecule displayed a max activation in series [3] of 100%. Moreover, the bioavailability in series [5] turned out to be 34%. In addition, in [6], the clearance came to 2.76 L/h/kg. Further, the half-life in series [7] was 1.4 h.

Regarding `CC(C)(C)c1ccc(S(=O)(=O)N2Cc3ccc(C(F)(F)F)nc3Nc3ccc(C(C)(C)O)c(F)c32)cc1`, in the series with Rattus norvegicus, the AUC/dose was determined as 0.19 µM·kg·h/mg. This molecule showed a half-inhibitory concentration (IC50) in series [1] of 0.005 µM. Moreover, the concentration for a half-maximal effect (EC50) in series [2] is 0.134 µM; in series [4] it was 0.077 µM. For the same molecule, in [3], the max activation worked out at 97%. Also, the bioavailability in [5] is 13%. For the same molecule, the clearance in series [6] was determined as 1.44 L/h/kg. The molecule also gave a half-life in series [7] of 3 h.

In series [1], `Cc1ccc2c(c1C)N(S(=O)(=O)c1ccc(C(C)(C)C)cc1)Cc1ccc(Cl)nc1N2` had an IC50 of 0.0012 µM. The EC50 amounted to 0.098 µM in [2] and 0.038 µM in series [4]. For the same molecule, the max activation in series [3] was determined as 105%.

In the case of `Cc1c(C(=O)NN2CCCCC2)nn(-c2ccc(Cl)cc2Cl)c1-c1ccc(I)cc1`, the Activity in the series with Mus musculus was found to be 6.2%.

On to `Cc1ccc2c(n1)N(S(=O)(=O)c1ccc(C(C)(C)C)cc1)Cc1ccc(C(F)(F)F)nc1N2`, for which the EC50 in series [2] amounted to 0.171 µM; in series [4], 0.11 µM. In series [3], this molecule returned a max activation of 112%.

Take `Cc1ccc2c(n1)Nc1ccc(C)c(C)c1N(S(=O)(=O)c1ccc(C(C)(C)C)cc1)C2`: the IC50 in series [1] was 0.01 µM. Further, the EC50 in series [2] was 0.232 µM; in [4] it was 0.131 µM. Moreover, the max activation in series [3] was 107%.

In series [1], `Cc1ccc2c(c1C)N(S(=O)(=O)c1ccc(C(C)(C)C#N)cc1)Cc1ccc(C(F)(F)F)nc1N2` came in with a half-inhibitory concentration (IC50) of 0.0057 µM. Also, the EC50 in series [2] amounted to 0.079 µM; in [4] it was 0.06 µM. In series [3], this molecule gave a max activation of 83%.

On to `Cc1ccc2c(c1C)N(S(=O)(=O)c1ccc(C(F)(F)F)cc1)Cc1ccc(C(F)(F)F)nc1N2`, for which, in series [1], the IC50 was 0.0068 µM. Moreover, the EC50 in series [2] stood at 0.079 µM; in series [4] it was 0.154 µM. For the same molecule, the max activation in [3] turned out to be 100%.

`Cc1ccc2c(c1C)N(S(=O)(=O)c1ccc(C(C)C)cc1)Cc1ccc(C(F)(F)F)nc1N2` displayed an AUC/dose in the series with Rattus norvegicus of 0.24 µM·kg·h/mg. The IC50 in series [1] was 0.0016 µM. The concentration giving a half-maximal response (EC50) in series [2] was found to be 0.084 µM; in series [4], 0.049 µM. The molecule also displayed a max activation in [3] of 110%. Further, in series [5], the bioavailability came to 10%. The same molecule returned a clearance in [6] of 0.96 L/h/kg. The half-life in series [7] was 3.5 h.

In turn, `Cc1ccc2c(c1C)N(S(=O)(=O)c1ccc(C(C)(C)F)cc1)Cc1ccc(C(F)(F)F)nc1N2` showed a half-inhibitory concentration (IC50) in series [1] of 0.0057 µM. For the same molecule, the EC50 in series [2] was determined as 0.2 µM; in series [4], 0.069 µM. For the same molecule, the max activation in [3] was found to be 108%.

`Cc1ccc2c(c1C)N(S(=O)(=O)c1ccc(C(C)(C)C)cc1)Cc1cccnc1N2` had an AUC/dose in the series on Rattus norvegicus of 0.007 µM·kg·h/mg. Besides, the IC50 in series [1] worked out at 0.04 µM. Moreover, the EC50 amounted to 0.248 µM in series [2] and 0.325 µM in series [4]. For the same molecule, the max activation in series [3] was determined as 101%. The molecule also yielded a bioavailability in series [5] of 1%. Moreover, the clearance in series [6] was found to be 9.84 L/h/kg. In [7], this molecule showed a half-life of 1.6 h.

These data come from ChEMBL document CHEMBL2177008, “Discovery of benzodiazepine sulfonamide-based bombesin receptor subtype 3 agonists and their unusual chirality” (ACS Med Chem Lett, 2011).
